Measured values as given in ChEMBL document CHEMBL4619774 (J Med Chem, 2020).

target: Plasma kallikrein (Homo sapiens, UniProt P03952); format: single protein
Sequence (P03952 20-390 limits assumed): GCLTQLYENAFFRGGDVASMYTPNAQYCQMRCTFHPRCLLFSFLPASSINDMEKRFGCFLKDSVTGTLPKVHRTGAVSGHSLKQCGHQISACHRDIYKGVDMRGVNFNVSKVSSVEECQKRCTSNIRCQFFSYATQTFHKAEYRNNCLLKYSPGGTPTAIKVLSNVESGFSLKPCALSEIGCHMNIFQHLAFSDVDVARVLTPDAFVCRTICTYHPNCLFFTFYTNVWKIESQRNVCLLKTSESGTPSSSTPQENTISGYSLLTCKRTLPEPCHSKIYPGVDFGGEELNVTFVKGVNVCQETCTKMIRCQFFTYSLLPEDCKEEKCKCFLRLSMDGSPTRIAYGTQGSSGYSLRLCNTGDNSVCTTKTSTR
Sequence (P03952 391-638 limits assumed): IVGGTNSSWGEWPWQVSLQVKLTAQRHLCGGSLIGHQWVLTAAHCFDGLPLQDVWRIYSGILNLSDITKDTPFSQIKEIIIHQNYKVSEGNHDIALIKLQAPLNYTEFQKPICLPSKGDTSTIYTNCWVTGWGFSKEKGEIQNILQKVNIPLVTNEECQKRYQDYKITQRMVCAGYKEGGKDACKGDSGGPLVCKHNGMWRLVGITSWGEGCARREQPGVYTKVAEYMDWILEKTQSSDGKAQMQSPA

IC50 | Compound
0.33 µM | CC(C)(O)c1cc(COc2ccccc2CC(=O)O)cc(-c2ccc3c(c2)CNCC3)c1
0.16 µM | COc1cccc(C(=O)O)c1OCC(O)c1cc(-c2ccc3c(c2)[C@H](N)CO3)cc(C(C)C)c1 (mixture of isomers)
0.004 µM | CC1(C)COc2c(COc3ccccc3CC(=O)O)cc(-c3ccc4c(c3)[C@H](N)CCO4)cc21
0.021 µM | CC(C)c1cc(CCOc2c(Cl)cccc2C(=O)O)cc(-c2ccc3c(c2)[C@H](N)CO3)c1
0.041 µM | Cc1cccc(C(=O)O)c1OCCc1cc(-c2ccc3c(c2)[C@H](N)CO3)cc(C(C)C)c1

target: T1, Urokinase-type plasminogen activator (Homo sapiens, UniProt P00749); format: ADME

IC50 | Compound
0.95 µM | CC1(C)COc2c(COc3ccccc3CC(=O)O)cc(-c3ccc4c(c3)[C@H](N)CCO4)cc21

target: T2, Coagulation factor VII (Homo sapiens, UniProt P08709); format: single protein
T2 sequence (P08709 whole entry): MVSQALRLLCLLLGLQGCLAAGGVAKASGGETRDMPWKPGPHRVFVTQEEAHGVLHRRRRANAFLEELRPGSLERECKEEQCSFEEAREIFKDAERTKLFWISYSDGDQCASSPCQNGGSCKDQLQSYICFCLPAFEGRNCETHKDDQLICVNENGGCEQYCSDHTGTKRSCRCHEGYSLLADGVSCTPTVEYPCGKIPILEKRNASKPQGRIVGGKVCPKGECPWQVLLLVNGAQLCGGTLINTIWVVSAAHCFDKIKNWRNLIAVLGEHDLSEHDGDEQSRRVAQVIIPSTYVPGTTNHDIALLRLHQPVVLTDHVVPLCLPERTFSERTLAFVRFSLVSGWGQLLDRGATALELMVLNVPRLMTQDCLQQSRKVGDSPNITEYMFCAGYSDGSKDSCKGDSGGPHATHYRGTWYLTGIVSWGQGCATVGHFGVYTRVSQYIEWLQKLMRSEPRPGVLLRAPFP

IC50 | Compound
12.5 µM | COc1cccc(C(=O)O)c1OCC(O)c1cc(-c2ccc3c(c2)[C@H](N)CO3)cc(C(C)C)c1 (mixture of isomers)
75 µM | CC1(C)COc2c(COc3ccccc3CC(=O)O)cc(-c3ccc4c(c3)[C@H](N)CCO4)cc21
20.5 µM | CC(C)c1cc(CCOc2c(Cl)cccc2C(=O)O)cc(-c2ccc3c(c2)[C@H](N)CO3)c1
45.1 µM | Cc1cccc(C(=O)O)c1OCCc1cc(-c2ccc3c(c2)[C@H](N)CO3)cc(C(C)C)c1

species: Homo sapiens; experiment: Selectivity ratio of IC50 for inhibition of human complement FD to IC50 for inhibition of human F11a

Ratio IC50 | Compound
2500 | CC1(C)COc2c(COc3ccccc3CC(=O)O)cc(-c3ccc4c(c3)[C@H](N)CCO4)cc21

target: Prothrombin (Homo sapiens, UniProt P00734); format: single protein

IC50 | Compound
7.43 µM | COc1cccc(C(=O)O)c1OCC(O)c1cc(-c2ccc3c(c2)[C@H](N)CO3)cc(C(C)C)c1 (mixture of isomers)
0.86 µM | CC1(C)COc2c(COc3ccccc3CC(=O)O)cc(-c3ccc4c(c3)[C@H](N)CCO4)cc21
6.22 µM | CC(C)c1cc(CCOc2c(Cl)cccc2C(=O)O)cc(-c2ccc3c(c2)[C@H](N)CO3)c1
9.82 µM | Cc1cccc(C(=O)O)c1OCCc1cc(-c2ccc3c(c2)[C@H](N)CO3)cc(C(C)C)c1

target: Complement factor D (Homo sapiens, UniProt P00746); format: single protein
Sequence (P00746 whole entry): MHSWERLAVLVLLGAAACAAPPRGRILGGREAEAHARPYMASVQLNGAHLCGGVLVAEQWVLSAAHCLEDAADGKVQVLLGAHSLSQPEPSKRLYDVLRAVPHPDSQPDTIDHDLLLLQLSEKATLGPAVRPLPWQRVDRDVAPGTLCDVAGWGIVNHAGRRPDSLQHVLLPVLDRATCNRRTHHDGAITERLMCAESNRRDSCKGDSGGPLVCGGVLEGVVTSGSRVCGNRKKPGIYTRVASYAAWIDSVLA

IC50 | Compound
0.23 µM | CC(C)(O)c1cc(COc2ccccc2CC(=O)O)cc(-c2ccc3c(c2)CNCC3)c1
27.2 µM | COc1cccc(C(=O)O)c1OCC(O)c1cc(-c2ccc3c(c2)[C@H](N)CO3)cc(C(C)C)c1 (mixture of isomers)
15 µM | CC1(C)COc2c(COc3ccccc3CC(=O)O)cc(-c3ccc4c(c3)[C@H](N)CCO4)cc21
34.2 µM | CC(C)c1cc(CCOc2c(Cl)cccc2C(=O)O)cc(-c2ccc3c(c2)[C@H](N)CO3)c1
> 100 µM | Cc1cccc(C(=O)O)c1OCCc1cc(-c2ccc3c(c2)[C@H](N)CO3)cc(C(C)C)c1

target: T1, Urokinase-type plasminogen activator; format: single protein; remark: another data set of the same source

IC50 | Compound
1.13 µM | COc1cccc(C(=O)O)c1OCC(O)c1cc(-c2ccc3c(c2)[C@H](N)CO3)cc(C(C)C)c1 (mixture of isomers)
0.93 µM | CC(C)c1cc(CCOc2c(Cl)cccc2C(=O)O)cc(-c2ccc3c(c2)[C@H](N)CO3)c1
2.48 µM | Cc1cccc(C(=O)O)c1OCCc1cc(-c2ccc3c(c2)[C@H](N)CO3)cc(C(C)C)c1

target: T3, Coagulation factor XI (Homo sapiens, UniProt P03951); experiment: Inhibition of human F11a using D-Leu-Pro-Arg*Rh110-D-Pro as substrate preincubated for 60 mins followed by substrate addition and measured after 60 mins by fluorescence assay
T3 sequence (P03951 19-387 limits assumed): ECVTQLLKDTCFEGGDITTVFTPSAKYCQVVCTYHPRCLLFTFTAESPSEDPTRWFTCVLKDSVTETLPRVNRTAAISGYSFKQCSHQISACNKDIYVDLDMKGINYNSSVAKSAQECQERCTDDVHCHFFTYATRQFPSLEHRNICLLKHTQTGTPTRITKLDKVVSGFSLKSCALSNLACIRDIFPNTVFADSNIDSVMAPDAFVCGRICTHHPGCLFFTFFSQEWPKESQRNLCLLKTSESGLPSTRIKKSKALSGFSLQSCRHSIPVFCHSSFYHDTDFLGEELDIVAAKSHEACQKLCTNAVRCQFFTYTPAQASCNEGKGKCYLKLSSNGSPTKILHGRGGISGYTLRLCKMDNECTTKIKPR
T3 sequence (P03951 388-625 limits assumed): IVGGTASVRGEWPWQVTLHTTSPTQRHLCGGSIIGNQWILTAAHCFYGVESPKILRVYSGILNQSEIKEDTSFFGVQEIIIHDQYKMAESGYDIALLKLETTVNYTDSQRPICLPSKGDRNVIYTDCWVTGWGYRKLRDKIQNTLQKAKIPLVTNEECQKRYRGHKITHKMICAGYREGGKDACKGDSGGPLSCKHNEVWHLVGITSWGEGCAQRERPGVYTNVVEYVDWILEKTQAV

IC50 | Compound
0.1 µM | CC(C)(O)c1cc(COc2ccccc2CC(=O)O)cc(-c2ccc3c(c2)CNCC3)c1
0.04 µM | COc1cccc(C(=O)O)c1OCC(O)c1cc(-c2ccc3c(c2)[C@H](N)CO3)cc(C(C)C)c1 (mixture of isomers)
0.006 µM | CC1(C)COc2c(COc3ccccc3CC(=O)O)cc(-c3ccc4c(c3)[C@H](N)CCO4)cc21
0.015 µM | CC(C)c1cc(CCOc2c(Cl)cccc2C(=O)O)cc(-c2ccc3c(c2)[C@H](N)CO3)c1
0.017 µM | Cc1cccc(C(=O)O)c1OCCc1cc(-c2ccc3c(c2)[C@H](N)CO3)cc(C(C)C)c1

target: Tissue-type plasminogen activator (Homo sapiens, UniProt P00750); format: single protein
Sequence (P00750 whole entry): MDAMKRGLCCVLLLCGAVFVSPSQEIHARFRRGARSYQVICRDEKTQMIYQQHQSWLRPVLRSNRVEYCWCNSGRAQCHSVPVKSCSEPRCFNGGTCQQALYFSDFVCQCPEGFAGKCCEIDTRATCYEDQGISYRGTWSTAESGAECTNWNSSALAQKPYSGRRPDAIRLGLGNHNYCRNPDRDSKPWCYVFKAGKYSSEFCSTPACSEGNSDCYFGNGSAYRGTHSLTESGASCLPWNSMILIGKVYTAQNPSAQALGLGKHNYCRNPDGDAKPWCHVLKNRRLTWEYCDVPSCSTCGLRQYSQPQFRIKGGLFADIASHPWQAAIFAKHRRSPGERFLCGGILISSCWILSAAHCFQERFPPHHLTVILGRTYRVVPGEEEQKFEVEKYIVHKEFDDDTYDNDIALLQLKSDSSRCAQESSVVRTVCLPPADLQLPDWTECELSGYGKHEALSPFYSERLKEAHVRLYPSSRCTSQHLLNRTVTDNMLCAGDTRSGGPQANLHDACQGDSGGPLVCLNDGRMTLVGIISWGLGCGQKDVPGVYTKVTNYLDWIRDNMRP

IC50 | Compound
6.68 µM | COc1cccc(C(=O)O)c1OCC(O)c1cc(-c2ccc3c(c2)[C@H](N)CO3)cc(C(C)C)c1 (mixture of isomers)
0.19 µM | CC1(C)COc2c(COc3ccccc3CC(=O)O)cc(-c3ccc4c(c3)[C@H](N)CCO4)cc21
3.67 µM | CC(C)c1cc(CCOc2c(Cl)cccc2C(=O)O)cc(-c2ccc3c(c2)[C@H](N)CO3)c1
4.13 µM | Cc1cccc(C(=O)O)c1OCCc1cc(-c2ccc3c(c2)[C@H](N)CO3)cc(C(C)C)c1

target: Plasminogen (Homo sapiens, UniProt P00747); format: single protein
Sequence (P00747 97-580 limits assumed): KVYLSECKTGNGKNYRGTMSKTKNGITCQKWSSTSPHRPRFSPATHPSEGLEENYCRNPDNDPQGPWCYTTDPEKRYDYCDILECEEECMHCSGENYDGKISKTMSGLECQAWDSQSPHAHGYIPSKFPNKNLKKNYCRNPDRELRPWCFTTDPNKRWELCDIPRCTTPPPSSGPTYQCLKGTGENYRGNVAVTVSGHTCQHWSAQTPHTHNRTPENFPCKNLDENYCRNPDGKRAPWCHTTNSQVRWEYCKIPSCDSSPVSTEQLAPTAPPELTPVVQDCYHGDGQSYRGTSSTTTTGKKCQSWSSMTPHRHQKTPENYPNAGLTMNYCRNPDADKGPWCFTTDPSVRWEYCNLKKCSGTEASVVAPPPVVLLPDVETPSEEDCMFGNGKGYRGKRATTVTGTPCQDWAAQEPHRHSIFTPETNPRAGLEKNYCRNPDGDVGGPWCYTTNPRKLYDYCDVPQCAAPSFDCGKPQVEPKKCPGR
Sequence (P00747 581-810 limits assumed): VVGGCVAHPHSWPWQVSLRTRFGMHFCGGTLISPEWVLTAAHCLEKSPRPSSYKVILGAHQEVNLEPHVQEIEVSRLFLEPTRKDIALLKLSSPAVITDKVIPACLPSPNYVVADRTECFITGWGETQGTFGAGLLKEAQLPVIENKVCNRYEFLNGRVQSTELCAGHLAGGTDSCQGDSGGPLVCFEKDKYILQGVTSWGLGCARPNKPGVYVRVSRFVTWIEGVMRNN

IC50 | Compound
46.2 µM | COc1cccc(C(=O)O)c1OCC(O)c1cc(-c2ccc3c(c2)[C@H](N)CO3)cc(C(C)C)c1 (mixture of isomers)
14 µM | CC1(C)COc2c(COc3ccccc3CC(=O)O)cc(-c3ccc4c(c3)[C@H](N)CCO4)cc21
34 µM | CC(C)c1cc(CCOc2c(Cl)cccc2C(=O)O)cc(-c2ccc3c(c2)[C@H](N)CO3)c1
> 100 µM | Cc1cccc(C(=O)O)c1OCCc1cc(-c2ccc3c(c2)[C@H](N)CO3)cc(C(C)C)c1

target: Coagulation factor X (Homo sapiens, UniProt P00742); format: single protein
Sequence (P00742 41-179 limits assumed): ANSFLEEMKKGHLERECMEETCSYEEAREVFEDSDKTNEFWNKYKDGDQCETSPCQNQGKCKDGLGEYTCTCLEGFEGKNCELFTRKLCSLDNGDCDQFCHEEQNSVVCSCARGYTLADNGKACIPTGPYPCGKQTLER
Sequence (P00742 235-488 limits assumed): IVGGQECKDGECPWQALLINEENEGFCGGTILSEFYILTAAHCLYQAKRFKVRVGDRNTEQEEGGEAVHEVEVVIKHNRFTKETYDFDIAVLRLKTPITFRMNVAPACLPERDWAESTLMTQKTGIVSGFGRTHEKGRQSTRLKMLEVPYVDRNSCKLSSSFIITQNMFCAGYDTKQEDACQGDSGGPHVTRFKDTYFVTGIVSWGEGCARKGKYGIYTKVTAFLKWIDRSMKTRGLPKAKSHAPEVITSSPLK

IC50 | Compound
16.3 µM | COc1cccc(C(=O)O)c1OCC(O)c1cc(-c2ccc3c(c2)[C@H](N)CO3)cc(C(C)C)c1 (mixture of isomers)
4.3 µM | CC1(C)COc2c(COc3ccccc3CC(=O)O)cc(-c3ccc4c(c3)[C@H](N)CCO4)cc21
11.1 µM | CC(C)c1cc(CCOc2c(Cl)cccc2C(=O)O)cc(-c2ccc3c(c2)[C@H](N)CO3)c1
12.5 µM | Cc1cccc(C(=O)O)c1OCCc1cc(-c2ccc3c(c2)[C@H](N)CO3)cc(C(C)C)c1

target: T3, Coagulation factor XI; experiment: Inhibition of […] human plasma F11a catalytic domain expressed in Escherichia coli strain BL21(DE3) using D-Leu-Pro-Arg*Rh110-D-Pro as substrate preincubated for 60 mins followed by substrate addition and measured after 60 mins by fluorescence assay

IC50 | Compound
0.43 µM | CC(C)(O)c1cc(COc2ccccc2CC(=O)O)cc(-c2ccc3c(c2)CNCC3)c1
8.11 µM | COc1cccc(C(=O)O)c1OCC(O)c1cc(-c2ccc3c(c2)[C@H](N)CO3)cc(C(C)C)c1 (mixture of isomers)
0.26 µM | CC1(C)COc2c(COc3ccccc3CC(=O)O)cc(-c3ccc4c(c3)[C@H](N)CCO4)cc21
5.49 µM | CC(C)c1cc(CCOc2c(Cl)cccc2C(=O)O)cc(-c2ccc3c(c2)[C@H](N)CO3)c1
6.62 µM | Cc1cccc(C(=O)O)c1OCCc1cc(-c2ccc3c(c2)[C@H](N)CO3)cc(C(C)C)c1

target: Coagulation factor IX (Homo sapiens, UniProt P00740); format: single protein
Sequence (P00740 47-191 limits assumed): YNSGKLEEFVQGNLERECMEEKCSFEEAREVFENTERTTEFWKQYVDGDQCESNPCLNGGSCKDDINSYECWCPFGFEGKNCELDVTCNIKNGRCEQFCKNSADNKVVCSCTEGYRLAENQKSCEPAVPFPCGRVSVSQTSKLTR
Sequence (P00740 227-461 limits assumed): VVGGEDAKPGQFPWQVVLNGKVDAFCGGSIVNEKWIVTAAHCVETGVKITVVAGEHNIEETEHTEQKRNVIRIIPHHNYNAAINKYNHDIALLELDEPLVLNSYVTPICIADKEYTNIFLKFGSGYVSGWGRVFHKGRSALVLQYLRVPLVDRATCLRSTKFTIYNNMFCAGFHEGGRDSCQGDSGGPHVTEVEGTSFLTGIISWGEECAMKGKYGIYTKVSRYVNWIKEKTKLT

IC50 | Compound
15.5 µM | COc1cccc(C(=O)O)c1OCC(O)c1cc(-c2ccc3c(c2)[C@H](N)CO3)cc(C(C)C)c1 (mixture of isomers)
1.6 µM | CC1(C)COc2c(COc3ccccc3CC(=O)O)cc(-c3ccc4c(c3)[C@H](N)CCO4)cc21
9.6 µM | CC(C)c1cc(CCOc2c(Cl)cccc2C(=O)O)cc(-c2ccc3c(c2)[C@H](N)CO3)c1
11.3 µM | Cc1cccc(C(=O)O)c1OCCc1cc(-c2ccc3c(c2)[C@H](N)CO3)cc(C(C)C)c1
